What was measured:
mouse ATB^0,+ [1] = target: T1, mouse ATB^0,+ (Mus musculus, UniProt Q9JMA9)
T1 sequence (Q9JMA9 1-638): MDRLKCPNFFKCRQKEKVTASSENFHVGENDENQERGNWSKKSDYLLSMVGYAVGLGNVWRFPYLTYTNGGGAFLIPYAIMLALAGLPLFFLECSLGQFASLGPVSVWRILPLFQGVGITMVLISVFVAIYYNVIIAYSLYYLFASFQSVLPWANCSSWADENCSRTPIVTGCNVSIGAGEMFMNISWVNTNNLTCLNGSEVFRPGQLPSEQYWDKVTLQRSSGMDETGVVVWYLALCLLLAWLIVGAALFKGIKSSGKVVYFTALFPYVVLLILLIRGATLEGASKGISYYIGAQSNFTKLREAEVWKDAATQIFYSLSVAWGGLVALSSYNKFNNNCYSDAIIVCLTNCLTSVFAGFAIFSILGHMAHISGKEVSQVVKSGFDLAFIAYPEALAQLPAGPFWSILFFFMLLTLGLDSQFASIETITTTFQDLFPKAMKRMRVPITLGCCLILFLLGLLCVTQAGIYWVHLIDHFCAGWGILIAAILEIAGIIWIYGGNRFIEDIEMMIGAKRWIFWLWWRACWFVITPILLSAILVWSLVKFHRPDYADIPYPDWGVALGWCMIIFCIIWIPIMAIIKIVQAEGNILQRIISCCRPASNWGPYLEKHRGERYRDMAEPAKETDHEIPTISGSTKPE

mouse ATB^0,+ [2] = target: T1, mouse ATB^0,+; assay: cell-based
ATB^0 = target: T2, ATB^0 (Homo sapiens, UniProt Q15758); assay: cell-based
T2 sequence (Q15758 1-541): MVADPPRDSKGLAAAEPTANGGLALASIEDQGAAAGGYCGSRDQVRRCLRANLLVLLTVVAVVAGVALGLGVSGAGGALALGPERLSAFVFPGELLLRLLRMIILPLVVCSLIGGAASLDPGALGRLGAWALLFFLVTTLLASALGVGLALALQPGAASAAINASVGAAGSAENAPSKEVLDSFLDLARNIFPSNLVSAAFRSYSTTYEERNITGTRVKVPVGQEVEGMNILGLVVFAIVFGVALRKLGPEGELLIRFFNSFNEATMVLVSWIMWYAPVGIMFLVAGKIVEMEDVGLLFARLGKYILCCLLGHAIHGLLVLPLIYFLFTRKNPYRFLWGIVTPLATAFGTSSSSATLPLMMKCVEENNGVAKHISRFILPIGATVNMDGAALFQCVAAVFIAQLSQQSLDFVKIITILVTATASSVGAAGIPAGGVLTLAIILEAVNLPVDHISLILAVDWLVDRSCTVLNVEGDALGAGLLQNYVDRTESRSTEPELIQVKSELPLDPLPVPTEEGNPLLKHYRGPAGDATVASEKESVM

mouse ATB^0,+ [3] = target: T1, mouse ATB^0,+; assay: Transport of radiolabeled substrates in HRPE cells expressing cloned mouse ATB0,+; assay type: cell-based
mouse ATB^0,+ [4] = target: T1, mouse ATB^0,+; remark: listed apart in the source
mouse ATB^0,+ [5] = target: T1, mouse ATB^0,+; remark: listed apart in the source
OCTN2 = target: T3, OCTN2 (Homo sapiens, UniProt O76082); conditions: literature values; cited from earlier work
T3 sequence (O76082 1-557): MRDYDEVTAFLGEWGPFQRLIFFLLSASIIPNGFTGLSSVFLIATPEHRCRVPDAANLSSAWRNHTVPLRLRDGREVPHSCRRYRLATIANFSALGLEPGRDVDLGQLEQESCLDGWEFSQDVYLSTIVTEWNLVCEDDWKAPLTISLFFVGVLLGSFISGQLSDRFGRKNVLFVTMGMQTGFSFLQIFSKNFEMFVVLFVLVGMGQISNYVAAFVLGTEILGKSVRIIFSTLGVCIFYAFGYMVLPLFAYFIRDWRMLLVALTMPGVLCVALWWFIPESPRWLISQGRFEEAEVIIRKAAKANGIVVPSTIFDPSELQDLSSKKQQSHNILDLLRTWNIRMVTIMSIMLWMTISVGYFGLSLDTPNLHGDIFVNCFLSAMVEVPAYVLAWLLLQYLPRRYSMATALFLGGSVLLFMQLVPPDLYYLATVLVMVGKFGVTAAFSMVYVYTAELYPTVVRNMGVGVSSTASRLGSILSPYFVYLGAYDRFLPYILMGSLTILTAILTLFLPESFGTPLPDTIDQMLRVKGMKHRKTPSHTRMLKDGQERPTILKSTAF

ATB^0,+ mRNA = assay: ATB0,+ mRNA levels in mouse intestine after bacterial lipopolysaccharide injection (semi-quantitative RT-PCR); assay type: in vivo; conditions: 5 mg/kg i.p., 16 h; GAPDH as internal control
Description: Mice were injected i.p. with either saline (control) or bacterial lipopolysaccharide (5 mg/kg body wt). 16 h following injection, mice were killed and the various segments of the intestine (J, jejunum; L, ileum; C, colon) were collected for mRNA isolation. Five-week-old IL2^+/+ and IL2^−/− mice were killed and the various segments of the intestine were collected for mRNA isolation. Semiquantitative RT-PCR with low number of PCR cycles was carried out with primer pairs specific for mouse ATB^0,+, mouse glyceraldehyde-3-phosphate dehydrogenase (GAPDH), and mouse cyclophilin C (CypC) and the RT-PCR products were detected by Southern hybridization and the signals were quantified.
Since D-serine is an important modulator of glutamatergic neurotransmission and other D-amino acids may also have significant biological effects, it is of clinical relevance to know if there are any pathological conditions in which the intestinal absorption of D-amino acids may be altered. Therefore, the present inventors assessed the expression of ATB^0,+ in the intestinal tract under inflammatory conditions that are known to affect intestinal function. The present inventors used two different animal models for this purpose. […] The steady-state levels of ATB^0,+ mRNA were examined by a semi-quantitative RT-PCR in the jejunum, ileum, and colon. […]

[6] = substrate: N=C(NCCC[C@H](N)C(=O)O)N[N+](=O)[O-]; assay: cells, lysate or membranes; conditions: other: oocytes, various concentrations; pH 7.5
[7] = substrate: NC(=N[N+](=O)[O-])Nc1cccc([C@H](N)C(=O)O)c1; assay: cells, lysate or membranes; conditions: pH 7.5
[8] = HRPE cells, radiolabeled substrate

C[C@H](N)C(=O)O [Alanine]
Current in X. laevis oocytes (nA), L-isomer (mouse ATB^0,+ [1]; L-amino acid 1 mM, NaCl pH 7.5): 650 ± 86 nA
Ki (mouse ATB^0,+ [2]): 101 ± 14.2 µM
Ki (ATB^0): 22.5 ± 4.2 µM

N[C@H](C(=O)O)c1ccccc1 [Phenylglycine, L-phenylglycine]
transport in ATB^0,+-expressing cells versus vector-transfected cells (in words) (mouse ATB^0,+ [3]; HRPE cells, [14C]phenylglycine 10 μM or [8-3H]-valacyclovir 1.25 μM): three times higher
cDNA-specific transport by ATB^0,+ relative to ATB^0 and mb^0,+AT (mouse ATB^0,+ [3]; [14C]phenylglycine 10 μM, HRPE cells): ten times higher
inhibition (mouse ATB^0,+ [4]): 100%
Ki (mouse ATB^0,+ [2]): 5.3 ± 0.4 µM
Ki (ATB^0): 19 ± 5.5 µM
affinity of ATB^0,+ relative to ATB^0 (mouse ATB^0,+ [5]; from Ki values of Table 5): 4 times
affinity of ATB^0,+ relative to affinity for glycine (mouse ATB^0,+ [5]; from Ki values of Table 5): 19 times
affinity of ATB^0,+ relative to affinity for phenylalanine (mouse ATB^0,+ [5]; from Ki values of Table 5): 13 times
affinity of ATB^0,+ relative to b^0,+AT (mouse ATB^0,+ [5]; from Ki values of Table 5): 53 times

C[N+](C)(C)CC(O)CC(=O)[O-] (stereo not drawn) [carnitine, β-hydroxy-γ-trimethylaminobutyrate]
Hill coefficient for Na+ activation of substrate transport (mouse ATB^0,+ [3]; HRPE cells): 1.6±0.1
K0.5 for Na+ in substrate transport (mouse ATB^0,+ [3]; HRPE cells): 54 ± 4 mM
Vmax of ATB^0,+-mediated transport (mouse ATB^0,+ [3]; HRPE cells): 72±2 nmol/10^6 cells/15 min
Michaelis-Menten constant (Kt) of transport via mouse ATB^0,+ (mouse ATB^0,+ [3]; [8]): 0.83 ± 0.08 mM
transport in ATB^0,+ cDNA-transfected cells compared to vector-transfected cells (mouse ATB^0,+ [3]; [8]): 16 fold
reduction of transport on removal of Cl− (gluconate) (mouse ATB^0,+ [3]; carnitine 15 μM, HRPE cells): ~60%
transport when Na+ substituted with N-methyl-D-glucamine (mouse ATB^0,+ [3]; carnitine 15 μM, HRPE cells): completely abolished
Kt of ATB^0,+ (discussion summary) (mouse ATB^0,+ [3]; summary of HRPE cell and oocyte values): 1 to 2 mM
induced inward currents (mouse ATB^0,+ [1]; 10 mM carnitine, esters under similar conditions): ~300 nA
Hill coefficient (nH) for Cl− activation of substrate-induced currents (mouse ATB^0,+ [1]; oocytes, carnitine 1 mM): 0.9±0.2
Hill coefficient (nH) for Na+ activation of substrate-induced currents (mouse ATB^0,+ [1]; oocytes, carnitine 1 mM): 1.9±0.5
K0.5 for Cl− of substrate-induced currents (mouse ATB^0,+ [1]; oocytes, carnitine 1 mM): 15 ± 5 mM
K0.5 for Na+ of substrate-induced currents (mouse ATB^0,+ [1]; oocytes, carnitine 1 mM): 25 ± 4 mM
K0.5 (concentration inducing half-maximal current; Michaelis-Menten constant) (mouse ATB^0,+ [1]; oocytes, membrane potential −50 mV): 1.8 ± 0.4 mM
Kt of OCTN2 (OCTN2): 5 to 15 µM
IC50 (mouse ATB^0,+ [5]): 600 ± 100 µM

lipopolysaccharide
increase of ATB^0,+ mRNA versus saline-treated mice, colon (ATB^0,+ mRNA): 2 fold
increase of ATB^0,+ mRNA versus saline-treated mice, ileum (ATB^0,+ mRNA): 7 fold

B1: mouse ATB^0,+ (Mus musculus) (protein)
chain: MDRLKCPNFFKCRQKEKVTASSENFHVGENDENQERGNWSKKSDYLLSMVGYAVGLGNVWRFPYLTYTNGGGAFLIPYAIMLALAGLPLFFLECSLGQFASLGPVSVWRILPLFQGVGITMVLISVFVAIYYNVIIAYSLYYLFASFQSVLPWANCSSWADENCSRTPIVTGCNVSIGAGEMFMNISWVNTNNLTCLNGSEVFRPGQLPSEQYWDKVTLQRSSGMDETGVVVWYLALCLLLAWLIVGAALFKGIKSSGKVVYFTALFPYVVLLILLIRGATLEGASKGISYYIGAQSNFTKLREAEVWKDAATQIFYSLSVAWGGLVALSSYNKFNNNCYSDAIIVCLTNCLTSVFAGFAIFSILGHMAHISGKEVSQVVKSGFDLAFIAYPEALAQLPAGPFWSILFFFMLLTLGLDSQFASIETITTTFQDLFPKAMKRMRVPITLGCCLILFLLGLLCVTQAGIYWVHLIDHFCAGWGILIAAILEIAGIIWIYGGNRFIEDIEMMIGAKRWIFWLWWRACWFVITPILLSAILVWSLVKFHRPDYADIPYPDWGVALGWCMIIFCIIWIPIMAIIKIVQAEGNILQRIISCCRPASNWGPYLEKHRGERYRDMAEPAKETDHEIPTISGSTKPE
Km [6]: 348 ± 5 µM
Km [7]: 106 ± 1 µM
